Reference: ChEMBL document CHEMBL5661943, “ASAP - In vitro antiviral effect” (2024)
Several values for one entry are separate records, joined by “and”; a condition that tells them apart may be missing. Identical values can stand only once.

Assays:
[1] = tested on: Zika virus; assay: (§1) Functional CPE-based assay to measure dose dependent changes in antiviral-drug inhibitory efficacy against Zika virus MR766 in Vero E6 miRFP670 cells. Cells are treated with antiviral candidates that are serially diluted. EC50 is reported via analysis of MTS assay as a readout of CPE. The assay has been performed by KU Leuven.; type: organism-based, Chlorocebus sabaeus, Vero C1008; conditions: Zika virus; for EC50: Vero C1008
[2] = tested on: dengue virus type 2; assay: Functional immunofluorescence assay to measure dose dependent changes in antiviral-drug inhibitory efficacy against Dengue virus type 2 Thailand/16681/84 in Vero E6/TMPRSS2 cells (cotreated with P-gp inhibitor, Elacridar). Cells are treated with antiviral candidates that are serially diluted, following infection, cells are fixed. EC50 is reported via analysis of immunofluorescence staining. The assay has been performed by Icahn School of Medicine at Mount Sinai.; type: organism-based, Chlorocebus sabaeus, VeroE6/TMPRSS2; conditions: Dengue virus; for EC90: P-gp concentration 2 uM, P-gp inhibitor Elacidar
[3] = tested on: dengue virus type 2; assay: Functional assay to measure dose dependent changes in antiviral-drug inhibitory efficacy against Dengue virus type 2 New Guinea C in Vero E6 miRFP670 cells (cotreated with P-gp inhibitor, CP100356). Cells are treated with antiviral candidates that are serially diluted, following infection, cells are fixed. EC50 is reported via analysis of fluorescence intensity using high-content imager. The …; type: organism-based, Chlorocebus sabaeus, Vero C1008; conditions: Dengue virus; for EC50: Vero C1008; for EC90: P-gp concentration 500 nM, P-gp inhibitor CP100356
[4] = tested on: Zika virus; assay: EC50 is reported via analysis of immunofluorescence staining. The assay has been performed by Icahn School of Medicine at Mount Sinai.; type: functional, organism-based, Chlorocebus sabaeus, VeroE6/TMPRSS2; conditions: for EC90: P-gp concentration 2 uM, P-gp inhibitor Elacidar
[5] = tested on: Zika virus; assay: as §1, with “cells (cotreated with P-gp inhibitor, CP100356).” for “cells.”; type: organism-based, Chlorocebus sabaeus, Vero C1008; conditions: Zika virus; for EC90: P-gp concentration 500 nM, P-gp inhibitor CP100356

Question: O=C(Nc1ccc2c(c1)CNCC2)c1cc(Cl)cc2[nH]ncc12 was tested. Which EC50 [1] did it give?
Answer: > 50 µM

Question: What about the EC90 ([1]; Vero C1008, Maximum measured 0.588 %, Minimum measured -2.808 %) of the same molecule?
Answer: > 50 µM

Question: What does the source list for CC(C)(C)c1cc(Br)cc(C(=O)Nc2ccc3c(c2)CNC3)c1?
Answer: EC50 [1]: > 50 µM; EC90 ([1]; Vero C1008, Baseline response 0 %, Hill slope -3.526, Maximum measured 2.777 %, Maximum response 100 %, Minimum measured -2.992 %, R squared 0.044): > 50 µM

Question: CN1Cc2ccc(NC(=O)c3cc(Cl)cc4[nH]ncc34)cc2C1 was tested. Which EC50 [1] did it give?
Answer: > 50 µM

Question: And the EC90 ([1]; Vero C1008, Baseline response 0 %, Hill slope -0.359, Maximum measured 1.713 %, Maximum response 100 %, Minimum measured -2.397 %, R squared 0.026)?
Answer: > 50 µM

Question: With N#CCCNC(=O)[C@H](Nc1ccc2c(c1)CNC2)c1cc(Cl)cc(C2CC2)c1 as the molecule, how does the EC50 ([2]; VeroE6/TMPRSS2) read?
Answer: > 50 µM

Question: What about the EC90 ([2]; VeroE6/TMPRSS2, Maximum measured 184.621 %, Minimum measured 81.605 %) of the same molecule?
Answer: > 50 µM

Question: And the EC50 [3]?
Answer: > 50 µM

Question: And the EC90 ([3]; Vero C1008, Maximum measured 137.124 %, Minimum measured 107.523 %)?
Answer: > 50 µM

Question: What about the EC90 ([4]; Zika virus, VeroE6/TMPRSS2, Maximum measured 63.585 %, Minimum measured 35.457 %) of the same molecule?
Answer: > 5.56 µM

Question: What about the EC90 ([4]; Zika virus, VeroE6/TMPRSS2, Baseline response 0 %, Hill slope -0.414, Maximum measured 108.813 %, Maximum response 100 %, Minimum measured 38.683 %, R squared 0.619) of the same molecule?
Answer: > 16.7 µM

Question: And the EC50 ([4]; veroe6/tmprss2)?
Answer: > 5.56 µM and 2.54 µM

Question: And the EC50 ([5]; Vero C1008)?
Answer: 4.22 µM

Question: What about the EC90 ([5]; Vero C1008, Baseline response 0 %, EC90 CI (lower) 2.191 uM, EC90 CI (upper) 28.402 uM, Hill slope 3.509, Maximum measured 177.981 %, Maximum response 100 %, Minimum measured 1.478 %, R squared 0.727) of the same molecule?
Answer: 7.89 µM

Question: O=C(Nc1ccc2c(c1)CNC2)c1cc(F)cc2[nH]nnc12 was tested. Which EC50 ([2]; VeroE6/TMPRSS2) did it give?
Answer: > 50 µM

Question: And the EC90 ([2]; VeroE6/TMPRSS2, Maximum measured 175.922 %, Minimum measured 81.786 %)?
Answer: > 50 µM

Question: And the EC90 ([2]; VeroE6/TMPRSS2, Baseline response 0 %, Hill slope 0.135, Maximum measured 108.442 %, Maximum response 100 %, Minimum measured 80.171 %, R squared 0.018)?
Answer: > 50 µM

Question: And the EC50 [3]?
Answer: > 50 µM

Question: What about the EC90 ([3]; Vero C1008, Maximum measured 103.909 %, Minimum measured 99.111 %) of the same molecule?
Answer: > 50 µM

Question: And the EC50 ([4]; Zika virus, VeroE6/TMPRSS2)?
Answer: > 50 µM

Question: What about the EC90 ([4]; Zika virus, VeroE6/TMPRSS2, Maximum measured 143.994 %, Minimum measured 34.535 %) of the same molecule?
Answer: > 50 µM

Question: What about the EC50 ([5]; Vero C1008) of the same molecule?
Answer: > 50 µM

Question: And the EC90 ([5]; Vero C1008, Maximum measured -0.357 %, Minimum measured -5.629 %)?
Answer: > 50 µM

Question: With CC(C)c1cc(Br)cc(C(=O)Nc2ccc3c(c2)CNC3)c1 as the molecule, how does the EC50 [1] read?
Answer: > 50 µM

Question: What about the EC90 ([1]; Vero C1008, Baseline response 0 %, Hill slope -0.823, Maximum measured 6.311 %, Maximum response 100 %, Minimum measured -3.726 %, R squared 0.279) of the same molecule?
Answer: > 50 µM

Question: Which results are given for Cn1cc(CNC(=O)[C@H](Nc2ccc3c(c2)CNC3)c2cc(Cl)cc(C3CC3)c2)cn1?
Answer: EC50 ([2]; VeroE6/TMPRSS2): > 50 µM; EC90 ([2]; VeroE6/TMPRSS2, Maximum measured 219.34 %, Minimum measured 69.596 %): > 50 µM; EC50 [3]: > 50 µM; EC90 ([3]; Vero C1008, Maximum measured 110.921 %, Minimum measured 103.415 %): > 50 µM; EC90 ([4]; Zika virus, VeroE6/TMPRSS2, Maximum measured 136.439 %, Minimum measured 82.812 %): > 5.56 µM; EC90 ([4]; Zika virus, VeroE6/TMPRSS2, Maximum measured 172.39 %, Minimum measured 65.114 %): > 50 µM; EC50 ([4]; veroe6/tmprss2): > 50 µM; EC50 ([5]; Vero C1008): > 50 µM; EC90 ([5]; Vero C1008, Maximum measured -1.973 %, Minimum measured -8.89 %): > 50 µM

Question: For COC(=O)CNC(=O)[C@H](Nc1ccc2c(c1)CNC2)c1cc(Cl)cc(C2CC2)c1, which EC50 ([2]; VeroE6/TMPRSS2) is on record?
Answer: > 50 µM

Question: What about the EC90 ([2]; VeroE6/TMPRSS2, Maximum measured 158.675 %, Minimum measured 120.715 %) of the same molecule?
Answer: > 50 µM

Question: And the EC50 [3]?
Answer: > 50 µM

Question: What about the EC90 ([3]; Vero C1008, Maximum measured 109.152 %, Minimum measured 106.626 %) of the same molecule?
Answer: > 50 µM

Question: What about the EC90 ([4]; Zika virus, VeroE6/TMPRSS2, Maximum measured 147.006 %, Minimum measured 69.301 %) of the same molecule?
Answer: > 16.7 µM

Question: What about the EC90 ([4]; Zika virus, VeroE6/TMPRSS2, Baseline response 0 %, Hill slope -5.229, Maximum measured 154.716 %, Maximum response 100 %, Minimum measured 79.745 %, R squared 0.023) of the same molecule?
Answer: > 5.56 µM

Question: What about the EC50 ([4]; veroe6/tmprss2) of the same molecule?
Answer: > 16.7 µM

Question: What about the EC50 ([5]; Vero C1008) of the same molecule?
Answer: > 50 µM

Question: What about the EC90 ([5]; Vero C1008, Baseline response 0 %, Hill slope 2.666, Maximum measured 16.971 %, Maximum response 100 %, Minimum measured -1.569 %, R squared 0.882) of the same molecule?
Answer: > 50 µM

Question: With N#C[C@H](Nc1cncc(-c2nn[nH]n2)c1)c1cc(Cl)cc(NC(=O)OCc2ccccc2)c1 as the molecule, how does the EC50 [1] read?
Answer: > 50 µM

Question: What about the EC90 ([1]; Vero C1008, Baseline response 0 %, Hill slope -0.546, Maximum measured 2.599 %, Maximum response 100 %, Minimum measured -1.254 %, R squared 0.412) of the same molecule?
Answer: > 50 µM

Question: For O=C(Nc1cc(Cl)cc([C@H]2[C@H](CO)[C@@H]2c2cccc(-c3nn[nH]n3)c2)c1)OCc1ccccc1, which EC50 [1] is on record?
Answer: > 50 µM

Question: What about the EC90 ([1]; Vero C1008, Baseline response 0 %, Hill slope -0.077, Maximum measured 3.793 %, Maximum response 100 %, Minimum measured 1.644 %, R squared 0.146) of the same molecule?
Answer: > 50 µM
